Assay: Liquid dish neat product liquid-air partition coefficient
Type: physicochemical
Conditions: not given

For `C=CCCC(=O)c1ccccc1` [Material 792], which “Log of liquid dish neat product liquid-air partition coefficient (Comment Code K/L)” value (from here on “Log … (Comment Code K/L)”) is on record?
Its value is “K (Log of liquid dish neat product liquid-air partition coefficient greater than or equal to −7)”.

Which “Log … (Comment Code K/L)” value does the source give for `C=CC(C)=CCC=C(C)CCC=C(C)C` [Material 710] here?
The value was “K (Log of liquid dish neat product liquid-air partition coefficient greater than or equal to −7)”.

For `COC1CC2CC1C1CC(C=O)CC21` (stereo not drawn) [Material 1026], which “Log … (Comment Code K/L)” value is on record?
Its value is “K (Log of liquid dish neat product liquid-air partition coefficient greater than or equal to −7)”.

For `C=C(C)C1CCC2(C)CCC=C(C)C2C1` (stereo not drawn) [Material 692], which “Log … (Comment Code K/L)” value is on record?
The value was “K (Log of liquid dish neat product liquid-air partition coefficient greater than or equal to −7)”.

Which “Log … (Comment Code K/L)” value does the source give for `CC1=CCC(/C=C/C(C)(C)C(C)O)C1(C)C` (stereo not drawn) [Material 985] here?
The value was “K (Log of liquid dish neat product liquid-air partition coefficient greater than or equal to −7)”.

Which “Log … (Comment Code K/L)” value does the source give for `CCC=CCC=CC=CC(=O)OCC` [Material 1000] here?
The value was “K (Log of liquid dish neat product liquid-air partition coefficient greater than or equal to −7)”.

Which “Log … (Comment Code K/L)” value does the source give for `CC1=CCC(CCC(C)C(C)O)C1(C)C` (stereo not drawn) [Material 1023] here?
The value was “K (Log of liquid dish neat product liquid-air partition coefficient greater than or equal to −7)”.

Which “Log … (Comment Code K/L)” value does the source give for `CC1=CCOC(c2ccccc2)C1` (stereo not drawn) [Material 1016] here?
The value was “K (Log of liquid dish neat product liquid-air partition coefficient greater than or equal to −7)”.

With `CC(=O)OC12CCCC(C)(CCC3C1CC3(C)C)C2` (stereo not drawn) [Material 573] as the compound, how does the “Log … (Comment Code K/L)” value read?
Its value is “K (Log of liquid dish neat product liquid-air partition coefficient greater than or equal to −7)”.

Which “Log … (Comment Code K/L)” value does the source give for `CC(C)c1ccc2ncccc2c1` [Material 778] here?
Its value is “K (Log of liquid dish neat product liquid-air partition coefficient greater than or equal to −7)”.

With `CC1=CCC(CCC(C)CO)C1(C)C` (stereo not drawn) [Material 600] as the compound, how does the “Log … (Comment Code K/L)” value read?
The value was “K (Log of liquid dish neat product liquid-air partition coefficient greater than or equal to −7)”.

Which “Log … (Comment Code K/L)” value does the source give for `C=C(C)C1CC=C(C=O)CC1` (stereo not drawn) [Material 946] here?
The value was “K (Log of liquid dish neat product liquid-air partition coefficient greater than or equal to −7)”.

With `C=C(C)C1CCC(C)(OC(C)=O)CC1` (stereo not drawn) [Material 611] as the compound, how does the “Log … (Comment Code K/L)” value read?
The value was “K (Log of liquid dish neat product liquid-air partition coefficient greater than or equal to −7)”.

For `CC(C)C1=CCC(C)(O)CC1` (stereo not drawn) [Material 982], which “Log … (Comment Code K/L)” value is on record?
The value was “K (Log of liquid dish neat product liquid-air partition coefficient greater than or equal to −7)”.

Which “Log … (Comment Code K/L)” value does the source give for `c1ccc(CCOC2CCCCC2)cc1` [Material 953] here?
Its value is “K (Log of liquid dish neat product liquid-air partition coefficient greater than or equal to −7)”.

Which “Log … (Comment Code K/L)” value does the source give for `CC1CC=CCCCCCCCC(=O)OCC1` (stereo not drawn) [Material 1099] here?
Its value is “K (Log of liquid dish neat product liquid-air partition coefficient greater than or equal to −7)”.

With `C/C(=C/C#N)CCc1ccccc1` [Material 892] as the compound, how does the “Log … (Comment Code K/L)” value read?
The value was “K (Log of liquid dish neat product liquid-air partition coefficient greater than or equal to −7)”.

With `CC12CCC(C(=O)C1=O)C2(C)C` (stereo not drawn) [Material 587] as the compound, how does the “Log … (Comment Code K/L)” value read?
The value was “K (Log of liquid dish neat product liquid-air partition coefficient greater than or equal to −7)”.

For `CC1=CCCC2(C)CCC(C(C)(C)O)CC12` (stereo not drawn) [Material 775], which “Log … (Comment Code K/L)” value is on record?
The value was “K (Log of liquid dish neat product liquid-air partition coefficient greater than or equal to −7)”.

With `CC1CC(C)(c2ccccc2)CO1` (stereo not drawn) [Material 1006] as the compound, how does the “Log … (Comment Code K/L)” value read?
The value was “K (Log of liquid dish neat product liquid-air partition coefficient greater than or equal to −7)”.

With `CCC(C)(O)CCc1ccccc1` (stereo not drawn) [Material 731] as the compound, how does the “Log … (Comment Code K/L)” value read?
Its value is “K (Log of liquid dish neat product liquid-air partition coefficient greater than or equal to −7)”.

With `CC/C=C\C/C=C/CCO` [Material 1072] as the compound, how does the “Log … (Comment Code K/L)” value read?
Its value is “K (Log of liquid dish neat product liquid-air partition coefficient greater than or equal to −7)”.

Same assay, conditions: class code letter within Comment Code

For `COC(OC)C(C)c1ccccc1` (stereo not drawn) [Material 256], which “Log … (Comment Code K/L)” value is on record?
Its value is “K (Log of liquid dish neat product liquid-air partition coefficient greater than or equal to −7)”.

Which “Log … (Comment Code K/L)” value does the source give for `CC(C)c1ccc(CO)cc1` [Material 491] here?
Its value is “K (Log of liquid dish neat product liquid-air partition coefficient greater than or equal to −7)”.

With `C=CCc1ccc(OC)cc1` [Material 119] as the compound, how does the “Log … (Comment Code K/L)” value read?
Its value is “K (Log of liquid dish neat product liquid-air partition coefficient greater than or equal to −7)”.

With `O=COCC=Cc1ccccc1` [Material 551] as the compound, how does the “Log … (Comment Code K/L)” value read?
The value was “K (Log of liquid dish neat product liquid-air partition coefficient greater than or equal to −7)”.

With `C=C1C=CC(C(C)C)CCC(C)=CCC1` (stereo not drawn) [Material 296] as the compound, how does the “Log … (Comment Code K/L)” value read?
Its value is “K (Log of liquid dish neat product liquid-air partition coefficient greater than or equal to −7)”.

With `COC(=O)C=Cc1ccccc1` [Material 117] as the compound, how does the “Log … (Comment Code K/L)” value read?
Its value is “K (Log of liquid dish neat product liquid-air partition coefficient greater than or equal to −7)”.

For `CCOC(C=C(C)CCC=C(C)C)OCC` [Material 521], which “Log … (Comment Code K/L)” value is on record?
Its value is “K (Log of liquid dish neat product liquid-air partition coefficient greater than or equal to −7)”.

Which “Log … (Comment Code K/L)” value does the source give for `C=CCCCCCCCCC(=O)OCC` [Material 381] here?
The value was “K (Log of liquid dish neat product liquid-air partition coefficient greater than or equal to −7)”.

For `CC(C)=CCCC(C)=CCCc1ccncc1` [Material 135], which “Log … (Comment Code K/L)” value is on record?
Its value is “K (Log of liquid dish neat product liquid-air partition coefficient greater than or equal to −7)”.

Which “Log … (Comment Code K/L)” value does the source give for `CC(=O)OCC=Cc1ccccc1` [Material 553] here?
The value was “K (Log of liquid dish neat product liquid-air partition coefficient greater than or equal to −7)”.

With `CC=C(C)C(=O)OCCC=CCC` [Material 274] as the compound, how does the “Log … (Comment Code K/L)” value read?
Its value is “K (Log of liquid dish neat product liquid-air partition coefficient greater than or equal to −7)”.

Which “Log … (Comment Code K/L)” value does the source give for `Cc1cccc(Oc2ccccc2)c1` [Material 114] here?
Its value is “K (Log of liquid dish neat product liquid-air partition coefficient greater than or equal to −7)”.

With `C=C(C)C1CC=C(C)C(O)C1` (stereo not drawn) [Material 170] as the compound, how does the “Log … (Comment Code K/L)” value read?
The value was “K (Log of liquid dish neat product liquid-air partition coefficient greater than or equal to −7)”.

Which “Log … (Comment Code K/L)” value does the source give for `C=CC(=C)CCCC(C)(C)OC(C)=O` [Material 35] here?
Its value is “K (Log of liquid dish neat product liquid-air partition coefficient greater than or equal to −7)”.

For `C=CCc1ccc(O)c(OC)c1` [Material 375], which “Log … (Comment Code K/L)” value is on record?
The value was “K (Log of liquid dish neat product liquid-air partition coefficient greater than or equal to −7)”.

With `C=CC1(C)CCC(C(C)(C)O)O1` (stereo not drawn) [Material 156] as the compound, how does the “Log … (Comment Code K/L)” value read?
The value was “K (Log of liquid dish neat product liquid-air partition coefficient greater than or equal to −7)”.

For `C=C1CCCC(C)(C)C1C(=O)C=CC` (stereo not drawn) [Material 331], which “Log … (Comment Code K/L)” value is on record?
The value was “K (Log of liquid dish neat product liquid-air partition coefficient greater than or equal to −7)”.

Which “Log … (Comment Code K/L)” value does the source give for `CC(C)=CCCC(C)=CC1OCC(C)O1` (stereo not drawn) [Material 519] here?
Its value is “K (Log of liquid dish neat product liquid-air partition coefficient greater than or equal to −7)”.

For `CC(=CC#N)CCc1ccccc1` [Material 505], which “Log … (Comment Code K/L)” value is on record?
Its value is “K (Log of liquid dish neat product liquid-air partition coefficient greater than or equal to −7)”.

Which “Log … (Comment Code K/L)” value does the source give for `CCCCCCCCCCOC(=O)CC` [Material 471] here?
The value was “K (Log of liquid dish neat product liquid-air partition coefficient greater than or equal to −7)”.

Same assay, conditions: code letters K, L

With `COc1ccc(C(C)=O)cc1` [Material 761] as the compound, how does the “Comment Code: Log of liquid dish neat product liquid-air partition coefficient” value (shortened to “Comment Code: Log”) read?
The value was “K (Log of liquid dish neat product liquid-air partition coefficient greater than or equal to −7)”.

For `COc1ccc(C=O)cc1OC` [Material 1118], which “Comment Code: Log” value is on record?
The value was “K (Log of liquid dish neat product liquid-air partition coefficient greater than or equal to −7)”.

With `CC(=O)CCc1ccc(O)cc1` [Material 1002] as the compound, how does the “Comment Code: Log” value read?
The value was “K (Log of liquid dish neat product liquid-air partition coefficient greater than or equal to −7)”.

For `CC(=O)OC12CCCC(C)(CCC3C1CC3(C)C)C2` (stereo not drawn) [Material 573], which “Comment Code: Log” value is on record?
Its value is “K (Log of liquid dish neat product liquid-air partition coefficient greater than or equal to −7)”.

Which “Comment Code: Log” value does the source give for `CC(C)CC(=O)OCc1ccccc1` [Material 645] here?
The value was “K (Log of liquid dish neat product liquid-air partition coefficient greater than or equal to −7)”.

Which “Comment Code: Log” value does the source give for `CCCCCCCC(=O)OCCC(C)C` [Material 237] here?
Its value is “K (Log of liquid dish neat product liquid-air partition coefficient greater than or equal to −7)”.

Which “Comment Code: Log” value does the source give for `CCc1ccccc1CC(C)(C)C=O` [Material 354] here?
The value was “K (Log of liquid dish neat product liquid-air partition coefficient greater than or equal to −7)”.

Which “Comment Code: Log” value does the source give for `N#CC=Cc1ccccc1` [Material 549] here?
Its value is “K (Log of liquid dish neat product liquid-air partition coefficient greater than or equal to −7)”.

Which “Comment Code: Log” value does the source give for `CC1=CCCC2(C)CCC(C(C)(C)O)CC12` (stereo not drawn) [Material 775] here?
Its value is “K (Log of liquid dish neat product liquid-air partition coefficient greater than or equal to −7)”.

Which “Comment Code: Log” value does the source give for `C=CCOC(=O)COC1CCCCC1` [Material 918] here?
The value was “K (Log of liquid dish neat product liquid-air partition coefficient greater than or equal to −7)”.

For `CC=CC(=O)C1C(C)=CCCC1(C)C` (stereo not drawn) [Material 880], which “Comment Code: Log” value is on record?
Its value is “K (Log of liquid dish neat product liquid-air partition coefficient greater than or equal to −7)”.

For `COc1ccc(COC(C)=O)cc1` [Material 664], which “Comment Code: Log” value is on record?
Its value is “K (Log of liquid dish neat product liquid-air partition coefficient greater than or equal to −7)”.
